Like-named read-outs stand apart in the source and are kept apart here.
Legend:
[1] = target: serotonin transporter (SERT) (Rattus norvegicus, UniProt P31652); experiment: Radioligand binding assay with [3H]citalopram on synaptic membrane; conditions: for affinity (Ki value) compared with Fluoxetine: comparison in words on Table 3; for activity / binding affinity relative to 6-nitro-2-piperazin-1-yl-quinoline: ratio of Ki values of Table 3
Experimental: After male SD Rats (250˜350 g) were decapitate by using quillotine, the whole brains were removed. The cerebral cortex were carefully cut to slices and weighed. 0.32 M sucrose which is 10 times of sucrose was added to the slices, and then homogenized twice for 15 seconds using Polytron. After being centrifuged at 4° C. for 10 minutes in 1,000×g, the thus obtained supernatant was re-centrifuged at 20,000×g for 20 minutes and then discarded. The precipitate was isolated, re-suspended in deionized water, was provided with osmotic shock for 10 minutes, and then centrifuged at 80,000×g for 20 minutes. The thus obtained precipitate was suspended in 50 ml of triacetate buffer, re-centrifuged at 48,000×g, and then transferred to a refrigerator. On the day of assay, the cells were thawed on ice, washed by centrifugation (48,000×g, 20 minutes).
The mixture was shaken at 25° C. for 60 minutes, incubated, filtered using a Brandel Cell Harvester through a GF/B Watman filter presoaked in 0.05 polyethylimine. The filters were then washed twice with 5 ml of ice-cold buffer, dried, added with 7 ml of ultima gold scintillation cocktail, and then shaken for 3˜4 hours.

Acute toxicity in rats = type: in vivo; conditions: SD, rat, in vivo
Experimental: (§1) 6-week old SPF SD line rats were used in the tests for acute toxicity. 6-chloro-2-piperazin-1-yl-quinoline or 4-chloro-6-nitro-2-piperazin-1-yl-quinoline were suspended in 1 ml saline buffer solution and […] administered to anterior tibialis once to 6 rats per group at the dosage of 500 mg/kg. Death, clinical symptoms, and weight change in rats were observed, hematological tests and biochemical tests of blood performed, and any abnormal signs in the gastrointestinal organs of chest and abdomen checked with eyes during autopsy. […]

SPF SD line rats = experiment: Acute toxicity in rats; type: in vivo
Experimental: as §1

depression-induced mice = experiment: Assay for anti-depression activity using a forced swimming test; type: in vivo; conditions: orally administered, 50 mg/kg (FIG. 1), p<0.003
Experimental: After 4-chloro-6-nitro-2-piperazin-1-yl-quinoline was dissolved in dimethylsulfoxide in a variety of concentrations and injected to depression-induced mice, the time of immobility was measured. The immobility time may be evaluated by measuring the effect against anti-depression. Because immobility means a helplessness of the mice, in this case, slow immobility should be understood to reduce depression.
4-chloro-6-nitro-2-piperazin-1-yl-quinoline was orally administered after 23 hours from the first treatment, subsequently, after 24 hours, the animals were placed in the cage to carry out the second treatment and the immobility time was measured for 5 minutes. The immobility caused by the second treatment was recorded while watching video tape. In order to make an objective observation, we made an average of the results of make than 3 people.

ICR mice = experiment: Assay for anti-depression activity using a tail suspension test; type: in vivo; conditions: for anti-depression effect higher than that of control (immobility time): ICR mice, oral
Experimental: The inventors carried out the tail suspension test to evaluate an anti-depression activity of the present compound. ICR mice were divided into 5 groups made up of 8 subjects, and orally dosed with 4-chloro-6-nitro-2-piperazin-1-yl-quinoline dissolved in saline buffer solution in a variety of its concentration 60 minutes prior to the beginning of the experiment. The evaluation of the activity was estimated using administering group, negative, and positive group. After suspending the animal by the tail induced the immobility, the immobility time was measured 6 minutes watching a recorded tape for video. The final data was obtained an average value measured by 3 persons to accurate the data.

SERT = SERT (Homo sapiens, UniProt P31645); conditions: known values, background art; read-out: binding affinity (Ki) to SERT; cited from earlier work
Chain of SERT (P31645 whole entry, species assumed): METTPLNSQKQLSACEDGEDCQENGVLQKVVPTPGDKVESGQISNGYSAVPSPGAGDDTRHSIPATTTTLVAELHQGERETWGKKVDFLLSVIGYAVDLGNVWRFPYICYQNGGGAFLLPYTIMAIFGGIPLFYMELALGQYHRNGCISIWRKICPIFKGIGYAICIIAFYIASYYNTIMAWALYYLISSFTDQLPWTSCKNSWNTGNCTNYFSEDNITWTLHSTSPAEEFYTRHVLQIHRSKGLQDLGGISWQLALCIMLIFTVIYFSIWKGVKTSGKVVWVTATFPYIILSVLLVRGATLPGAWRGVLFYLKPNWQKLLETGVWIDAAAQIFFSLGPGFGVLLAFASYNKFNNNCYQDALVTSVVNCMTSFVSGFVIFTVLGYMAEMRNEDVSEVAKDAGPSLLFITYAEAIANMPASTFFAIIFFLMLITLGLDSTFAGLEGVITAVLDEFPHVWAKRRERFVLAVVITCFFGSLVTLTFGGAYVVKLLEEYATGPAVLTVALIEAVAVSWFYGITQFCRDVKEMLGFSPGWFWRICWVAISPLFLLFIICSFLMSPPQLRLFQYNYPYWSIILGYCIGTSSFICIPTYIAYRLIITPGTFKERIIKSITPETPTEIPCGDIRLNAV

[2] = 1 nM [3H]citalopram, rat cerebral cortex synaptic membrane, 25° C., 60 minutes

Chain of serotonin transporter (SERT) (P31652 whole entry): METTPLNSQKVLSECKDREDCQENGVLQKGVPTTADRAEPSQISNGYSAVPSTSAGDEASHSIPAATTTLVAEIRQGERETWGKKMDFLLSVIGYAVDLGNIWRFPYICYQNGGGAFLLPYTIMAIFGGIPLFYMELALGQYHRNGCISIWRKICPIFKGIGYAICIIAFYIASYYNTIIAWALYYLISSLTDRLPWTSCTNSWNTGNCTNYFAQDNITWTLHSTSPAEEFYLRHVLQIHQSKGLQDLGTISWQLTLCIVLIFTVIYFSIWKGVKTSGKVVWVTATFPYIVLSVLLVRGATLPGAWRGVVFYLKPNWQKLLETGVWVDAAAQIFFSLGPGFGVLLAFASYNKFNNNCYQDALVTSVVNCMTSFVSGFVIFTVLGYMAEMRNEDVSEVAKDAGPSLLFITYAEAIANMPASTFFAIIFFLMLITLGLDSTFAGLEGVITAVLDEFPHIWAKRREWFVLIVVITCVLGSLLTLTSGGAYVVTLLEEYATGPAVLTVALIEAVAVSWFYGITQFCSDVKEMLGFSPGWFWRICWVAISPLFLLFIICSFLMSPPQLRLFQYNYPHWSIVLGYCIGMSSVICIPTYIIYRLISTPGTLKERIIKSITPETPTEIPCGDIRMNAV

Row | Structure (SMILES) | Ki [1, 2] [nM] | Ki [1] [nM] | other results
1 | CNCCN(C)c1ccc2cc([N+](=O)[O-])ccc2n1 [Example 16, 2-(N-methyl-N-(2-N′-methylamino)ethyl)amino-6-nitroquinoline] | 8.43 ± 0.45 | – | –
2 | Ic1ccc2nc(N3CCNCC3)ccc2c1 [Example 6, 6-iodo-2-piperazin-1-yl-quinoline] | 6.6 ± 0.52 | – | –
3 | Clc1ccc2nc(N3CCNCC3)ccc2c1 [Example 8, 6-chloro-2-piperazin-1-yl-quinoline] | 1.68 ± 0.13 | – | LD50 (Acute toxicity in rats; rats, single administration of 500 mg/kg, read-out: estimated LD50): > 500 mg/kg; acute toxicity observations (death, clinical symptoms, weight change) (SPF SD line rats; rats, single administration of 500 mg/kg, 6 rats per group): did not cause any specific clinical symptoms, weight change, or death
4 | CC1CN(c2ccc3cc([N+](=O)[O-])ccc3n2)CCN1 (stereo not shown) [Example 15, 2-(3-methylpiperazin-1-yl)-6-nitroquinoline] | 22.2 ± 1.7 | – | –
5 | O=[N+]([O-])c1ccc2nc(N3CCNCC3)c(CCCCl)cc2c1 [Example 4, 3-(3-chloropropyl)-6-nitro-2-piperazin-1-yl-quinoline] | – | 1.08 ± 0.17 | –
6 | CCc1cc2cc([N+](=O)[O-])ccc2nc1N1CCNCC1 [Example 2, 3-ethyl-6-nitro-2-(piperazin-1-yl)quinoline] | – | 0.36 ± 0.02 | affinity (Ki value) compared with Fluoxetine [1]: exceed that of Fluoxetine
7 | C=Cc1cc(N2CCNCC2)nc2ccc([N+](=O)[O-])cc12 [Example 13, 6-nitro-2-(piperazin-1-yl)-4-vinylquinoline] | – | 1.42 | –
8 | O=[N+]([O-])c1ccc2nc(N3CCNCC3)cc(Cl)c2c1 [Example 10, 4-chloro-6-nitro-2-(piperazin-1-yl)quinoline] | – | 0.017 | LD50 (Acute toxicity in rats; 500 mg/kg): > 500 mg/kg; acute toxicity observations (death, clinical symptoms, weight change) (SPF SD line rats; rat, in vivo, 500 mg/kg): did not cause any specific clinical symptoms, weight change, or death; anti-depression effect higher than that of the control (immobility time) (depression-induced mice): 30%; effect higher than that of the control (immobility time) (ICR mice; FIG. 2B, 1 mg/kg or 10 mg/kg, anova p<0.005): about 65%; anti-depression effect higher than that of control (immobility time) (ICR mice; 5 mg/kg): 56%; anti-depression effect higher than that of control (immobility time) (ICR mice; 50 mg/kg): 60%; ED50 (ICR mice; Mus musculus, expected from evenness of effect from 1 to 50 mg/kg): < 1 mg/kg; activity / binding affinity relative to 6-nitro-2-piperazin-1-yl-quinoline [1]: 10 times; activity / binding affinity relative to 6-nitro-2-piperazin-1-yl-quinoline ([1]; listed as 4-chloro-6-nitro-2-piperazin-1-yl-quinoline): over ten times
9 | Brc1ccc2nc(N3CCNCC3)ccc2c1 [Example 7, 6-bromo-2-piperazin-1-yl-quinoline] | 0.91 ± 0.07 | – | –
10 | O=[N+]([O-])c1ccc2nc(N3CCCNCC3)ccc2c1 [Example 17, 2-[1,4]diazepin-1-yl-6-nitroquinoline] | 1.9 ± 0.15 | – | –
11 | O=[N+]([O-])c1ccc2nc(N3CCNCC3)cc(-c3ccco3)c2c1 [Example 14, 4-(2-furanyl)-6-nitro-2-(piperazin-1-yl)quinoline] | – | 6.4 | –
12 | O=[N+]([O-])c1ccc2nc(N3CCNCC3)ccc2c1 [6-nitro-2-piperazin-1-yl-quinoline, 6-nitro-2-(piperazin-1-yl)quinoline, reference compound] | 0.17 ± 0.03 | – | Ki (SERT): 0.018 nM
13 | O=[N+]([O-])c1ccc2nc(N3CCNCC3)c(CCCF)cc2c1 [Example 5, 3-(3-fluoropropyl)-6-nitro-2-piperazin-1-yl-quinoline] | 0.32 ± 0.01 | – | affinity (Ki value) compared with Fluoxetine [1]: exceed that of Fluoxetine
14 | O=[N+]([O-])c1ccc2nc(N3CCNCC3)c(Br)cc2c1 [Example 9, 3-bromo-6-nitro-2-(piperazin-1-yl)quinoline] | 12.6 ± 1.14 | – | –
15 | CCCc1cc2cc([N+](=O)[O-])ccc2nc1N1CCNCC1 [Example 3, 6-nitro-2-(piperazin-1-yl)-3-propylquinoline] | – | 0.26 ± 0.01 | affinity (Ki value) compared with Fluoxetine [1]: exceed that of Fluoxetine
16 | Cc1cc2cc([N+](=O)[O-])ccc2nc1N1CCNCC1 [Example 1, 3-methyl-6-nitro-2-(piperazin-1-yl)quinoline] | – | 8.45 ± 0.62 | –

Source: patent US20050165006A1, “Quinoline derivatives, their preparation and pharmaceutical compositions comprising the same” (priority 2002, published 2005)
